Values after ≈ are worked out from the molar mass of the structure shown. Where two headings read alike, the source gives them in different places.
What was measured:
Assay type in all cases: cell-based
[1] = system: mouse allogenic MLR (BALB/c mouse spleen cells stimulated with C57BL/6 mouse spleen cells); experiment: mouse allogenic mixed lymphocyte reaction (MLR), 3H-thymidine uptake
Description: The immunosuppressive activity of the compounds was assayed on the basis of mouse allogenic mixed lymphocyte reaction (hereinafter sometimes abbreviated as MLR). Mouse allogenic MRL was carried out using a mixed culture of BALB/c mouse (H-2^d) spleen cells as the responder cells and mitomycin C-treated C57BL/6 ([…]) mouse spleen cells as the stimulator cells in equal amounts.
The responder cells were prepared as follows:
The spleen was resected from 5- to 6-week-old BALB/c mice, and single cell suspension of spleen cells was prepared by using the RPMI1640 culture medium (containing 60 μg/ml of kanamycin sulfate, 2 mM of L-glutamine, 10 mM of N-2-hydroxyethylpiperazine-N'-2-ethanesulphonate (HEPES) and 0.1% sodium hydrogencarbonate) to which heat-inactivated fetal calf serum (hereinafter sometimes abbreviated as FCS) had been added to 5%. After hemolytic treatment, the cell suspension was adjusted to a concentration of 10^7 cells/ml with the RPMI1640 culture medium supplemented with 10^-4 M 2-mercapto-ethanol and 20% FCS, and was used as the responder cell suspension.
The stimulator cells were prepared as follows: The spleen was resected from 5- to 6-week-old male C57BL/6 mice, and a single cell suspension of spleen cells was prepared by using the RPMI1640 culture medium. After hemolytic treatment, the cells were treated with 40 μg/ml of mitomycin C at 37° C. for 60 minutes. After washing three times, the cell suspension was adjusted to a concentration of 10^7 cells/ml with the RPMI1640 culture medium supplemented with 10^-4 M 2-mercapto-ethanol and 20% FCS, and was used as the stimulator cell suspension.
The blastogenesis of lymphocytes was assayed using ^3 H-thymidine uptake as an index. That is, after termination of culture, 18.5 KBq/well of ^3 H-thymidine was added thereto and the suspension was cultured for 4 hours. Cells were harvested by a cell-harvester, and the radioactivity incorporated into the cells was determined by a liquid scintillation counter, which was used as an index of blastogenesis of lymphocytes in the mouse allogenic MLR. The suppression of the mouse allogenic MLR was evaluated by calculating the percent suppression by the following formula.
The test substance dissolved in methanol was diluted with the RPMI1640 culture medium and put to use.

[2] = system: IL-2 production in PHA-stimulated mouse spleen cells; experiment: suppression of IL-2 production in PHA-stimulated mouse spleen cells; settings: for inhibition at 0.001 µg/mL / inhibition at 0.01 µg/mL / inhibition at 0.1 µg/mL / inhibition at 1 µg/mL: Mus musculus, 24 h, read-out: Suppression
Description: The suppression of IL-2 and IL-3 production in the mitogen-stimulated mouse spleen cells was examined as follows:
The spleen was resected from 5- to 8-week-old male C3H/HeN mice, and a single cell suspension of spleen cells was prepared by using the RPMI1640 culture medium. After hemolytic treatment, the concentration of the suspension was adjusted to 10^7 cells/ml by using the RPMI1640 culture medium supplemented with 20% FCS, to which 10 μg/ml of phytohemagglutinin (PHA) was added as mitogen. […] After termination of culture, the supernatant was collected and used as the culture supernatant of PHA-stimulated mouse spleen cells.
The IL-2 activity in the culture supernatant of PHA-stimulated mouse spleen cells was assayed as follows:
IL-2 dependent mouse cell line CTLL-2 cells were suspended in the RPMI1640 culture medium supplemented with 30% FCS to the concentration of 2×10^5 cells/ml. One hundred μl of the cell suspension and 100 μl of the two-fold serial dilution of the culture supernatant of PHA-stimulated mouse spleen cells were added to a 96-well flat-bottomed microtest plate. […] The IL-2 activity is expressed in U/ml as the dilution at which the absorbancy measured by MTT method was 50% of the maximum.

[3] = system: human allogenic MLR (human peripheral blood lymphocytes); experiment: human allogenic MLR-suppressive activity, 3H-thymidine uptake; settings: for suppressive activity in human allogenic MLR (in words): 1 to 0.0001 μg/ml
Description: The human allogenic MLR-suppressive activity was assayed as follows:
Human peripheral blood lymphocytes obtained by Ficoll-Paque density gradient centrifugation of normal human peripheral blood were suspended in the RPMI1640 culture medium supplemented with 10% FCS, placed in a plastic dish, and cultured in an atmosphere of 5% carbon dioxide and 95% air at 37° C. for 2 hours. After termination of culture, the supernatant after gentle pipetting was collected and centrifuged (1000 rpm, for 5 minutes) to obtain plastic-nonadherent cells. The plastic-nonadherent cells were allowed to pass through a nylon-wool column to give nylon-nonadherent cells, and the concentration of the cell suspension was adjusted to 4×10^6 cells/ml by using the RPMI1640 culture medium supplemented with 10% FCS, and used as the responder cell suspension.
The plastic-adherent cells were removed from the plastic dish by vigorous pipetting after addition of phosphate buffered saline (PBS) supplemented with 5% FCS and 0.02% disodium ethylenediaminetetraacetic acid (EDTA). The plastic-adherent cells were treated with 40 μg/ml of mitomycin C at 37° C. for 60 minutes, washed three times, and suspended to the concentration of 4×10^6 cells/ml in the RPMI1640 culture medium supplemented with 10% FCS. The resultant suspension was used as the stimulator cell suspension.
After termination of culture, 37 KBq/well of ^3 H-thymidine was added, and after 18 hours of culture, the cells were harvested by a cell-harvester. The radioactivity incorporated into the cells was measured by a liquid scintillation counter, which was used as an index of blastogenic response of lymphocytes in human allogenic MLR. The suppression of human allogenic MLR was evaluated by calculating the percent suppression by the following formula. [formula]

[4] = Mus musculus, Lymphocyte, read-out: Suppression

SMILES: CCCCCCC(O)C=CCCCCC=CCC(O)C(O)C(N)(CO)C(=O)O (stereo not shown) [Example 1]
- 3H-thymidine uptake ([1]; 0.0001 μg/ml; Table 1A): 17985 cpm
- 3H-thymidine uptake ([1]; 0.001 μg/ml; Table 1A): 13566 cpm
- 3H-thymidine uptake ([1]; 0.01 μg/ml; Table 1A): 11016 cpm
- 3H-thymidine uptake ([1]; 0.1 μg/ml; Table 1A): 1020 cpm
- 3H-thymidine uptake ([1]; 1 μg/ml; Table 1A): 919 cpm
- inhibition at 0.0001 µg/mL ([1]; Mus musculus, Lymphocyte, 0.0001 μg/ml; Table 1A; read-out: Suppression): 2.7%
- inhibition at 0.001 µg/mL ([1]; Mus musculus, Lymphocyte, 0.001 μg/ml; Table 1A; read-out: Suppression): 29%
- inhibition at 0.01 µg/mL ([1]; Mus musculus, Lymphocyte, 0.01 μg/ml; Table 1A; read-out: Suppression): 44.1%
- inhibition at 0.1 µg/mL ([1]; Mus musculus, Lymphocyte, 0.1 μg/ml; Table 1A; read-out: Suppression): 100%
- inhibition at 1 µg/mL ([1]; Mus musculus, Lymphocyte, 1 μg/ml; Table 1A; read-out: Suppression): 100%
- IC50 ([1]; Mus musculus, Lymphocyte; read-out: 50%-inhibition concentration (IC50) in mouse allogenic MLR): 0.013 µg/mL (≈ 0.0324 µM)
- IL-2 activity ([2]; 0.001 μg/ml): 13.9 U/ml
- IL-2 activity ([2]; 0.01 μg/ml): 6.1 U/ml
- IL-2 activity ([2]; 0.1 μg/ml): 3.7 U/ml
- IL-2 activity ([2]; 1 μg/ml): 2.0 U/ml
- inhibition at 0.001 µg/mL ([2]; 0.001 μg/ml): 0%
- inhibition at 0.01 µg/mL ([2]; 0.01 μg/ml): 49.6%
- inhibition at 0.1 µg/mL ([2]; 0.1 μg/ml): 69.4%
- inhibition at 1 µg/mL ([2]; 1 μg/ml): 83.5%
- 3H-thymidine uptake ([3]; 0.0001 μg/ml, Donor C/Donor D): 20334 cpm
- 3H-thymidine uptake ([3]; 0.001 μg/ml, Donor A/Donor B): 12137 cpm
- 3H-thymidine uptake ([3]; 0.001 μg/ml, Donor C/Donor D): 15284 cpm
- 3H-thymidine uptake ([3]; 0.01 μg/ml, Donor A/Donor B): 7479 cpm
- 3H-thymidine uptake ([3]; 0.01 μg/ml, Donor C/Donor D): 7232 cpm
- 3H-thymidine uptake ([3]; 0.1 μg/ml, Donor A/Donor B): 5590 cpm
- 3H-thymidine uptake ([3]; 0.1 μg/ml, Donor C/Donor D): 5292 cpm
- 3H-thymidine uptake ([3]; 1 μg/ml, Donor A/Donor B): 5613 cpm
- 3H-thymidine uptake ([3]; 1 μg/ml, Donor C/Donor D): 6689 cpm
- suppressive activity in human allogenic MLR (in words) [3]: exhibited suppressive activity in human allogenic MLR in a concentration-dependent manner
- inhibition at 0.0001 µg/mL ([3]; Homo sapiens, Lymphocyte, 0.0001 μg/ml, Donor C/Donor D, read-out: Suppression): 1.4%
- inhibition at 0.001 µg/mL ([3]; Homo sapiens, Lymphocyte, 0.001 μg/ml, Donor A/Donor B, read-out: Suppression): 0%
- inhibition at 0.001 µg/mL ([3]; Homo sapiens, Lymphocyte, 0.001 μg/ml, Donor C/Donor D, read-out: Suppression): 24.4%
- inhibition at 0.01 µg/mL ([3]; Homo sapiens, Lymphocyte, 0.01 μg/ml, Donor A/Donor B, read-out: Suppression): 39.6%
- inhibition at 0.01 µg/mL ([3]; Homo sapiens, Lymphocyte, 0.01 μg/ml, Donor C/Donor D, read-out: Suppression): 65.4%
- inhibition at 0.1 µg/mL ([3]; Homo sapiens, Lymphocyte, 0.1 μg/ml, Donor A/Donor B, read-out: Suppression): 56.5%
- inhibition at 0.1 µg/mL ([3]; Homo sapiens, Lymphocyte, 0.1 μg/ml, Donor C/Donor D, read-out: Suppression): 75.3%
- inhibition at 1 µg/mL ([3]; Homo sapiens, Lymphocyte, 1 μg/ml, Donor A/Donor B, read-out: Suppression): 56.3%
- inhibition at 1 µg/mL ([3]; Homo sapiens, Lymphocyte, 1 μg/ml, Donor C/Donor D, read-out: Suppression): 68.2%

SMILES: CCCCCCCCCCCCCCCC[C@@H](O)[C@H](O)[C@@](N)(CO)C(=O)O [Example 2]
- 3H-thymidine uptake ([1]; 0.001 μg/ml; Table 1A): 17981 cpm
- 3H-thymidine uptake ([1]; 0.01 μg/ml; Table 1A): 12011 cpm
- 3H-thymidine uptake ([1]; 0.1 μg/ml; Table 1A): 2329 cpm
- 3H-thymidine uptake ([1]; 1 μg/ml; Table 1A): 1869 cpm
- IC50 ([1]; Mus musculus, Lymphocyte, read-out: 50%-inhibition concentration (IC50) in mouse allogenic MLR): 0.016 µg/mL (≈ 0.0411 µM)
- inhibition at 0.001 µg/mL [1, 4]: 2.7%
- inhibition at 0.01 µg/mL [1, 4]: 38.2%
- inhibition at 0.1 µg/mL [1, 4]: 95.8%
- inhibition at 1 µg/mL [1, 4]: 98.6%
- IL-2 activity ([2]; 0.001 μg/ml): 12.1 U/ml
- IL-2 activity ([2]; 0.01 μg/ml): 7.0 U/ml
- IL-2 activity ([2]; 0.1 μg/ml): 6.1 U/ml
- IL-2 activity ([2]; 1 μg/ml): 3.7 U/ml
- inhibition at 0.001 µg/mL [2]: 0%
- inhibition at 0.01 µg/mL [2]: 42.1%
- inhibition at 0.1 µg/mL [2]: 49.6%
- inhibition at 1 µg/mL [2]: 69.4%
- 3H-thymidine uptake ([3]; 0.00001 μg/ml, Donor C/Donor D): 13909 cpm
- 3H-thymidine uptake ([3]; 0.0001 μg/ml, Donor C/Donor D): 15259 cpm
- 3H-thymidine uptake ([3]; 0.001 μg/ml, Donor A/Donor B): 9258 cpm
- 3H-thymidine uptake ([3]; 0.001 μg/ml, Donor C/Donor D): 15503 cpm
- 3H-thymidine uptake ([3]; 0.01 μg/ml, Donor A/Donor B): 8119 cpm
- 3H-thymidine uptake ([3]; 0.01 μg/ml, Donor C/Donor D): 11263 cpm
- 3H-thymidine uptake ([3]; 0.1 μg/ml, Donor A/Donor B): 4624 cpm
- 3H-thymidine uptake ([3]; 0.1 μg/ml, Donor C/Donor D): 7300 cpm
- 3H-thymidine uptake ([3]; 1 μg/ml, Donor A/Donor B): 7130 cpm
- 3H-thymidine uptake ([3]; 1 μg/ml, Donor C/Donor D): 6583 cpm
- suppressive activity in human allogenic MLR (in words) [3]: exhibited suppressive activity in human allogenic MLR in a concentration-dependent manner
- inhibition at 10 pg/mL ([3]; Homo sapiens, Lymphocyte, read-out: Suppression, 0.00001 μg/ml, Donor C/Donor D): 31.4%
- inhibition at 0.0001 µg/mL ([3]; Homo sapiens, Lymphocyte, read-out: Suppression, 0.0001 μg/ml, Donor C/Donor D): 24.5%
- inhibition at 0.001 µg/mL ([3]; Homo sapiens, Lymphocyte, read-out: Suppression, 0.001 μg/ml, Donor A/Donor B): 23.6%
- inhibition at 0.001 µg/mL ([3]; Homo sapiens, Lymphocyte, read-out: Suppression, 0.001 μg/ml, Donor C/Donor D): 23.2%
- inhibition at 0.01 µg/mL ([3]; Homo sapiens, Lymphocyte, read-out: Suppression, 0.01 μg/ml, Donor A/Donor B): 33.8%
- inhibition at 0.01 µg/mL ([3]; Homo sapiens, Lymphocyte, read-out: Suppression, 0.01 μg/ml, Donor C/Donor D): 44.9%
- inhibition at 0.1 µg/mL ([3]; Homo sapiens, Lymphocyte, read-out: Suppression, 0.1 μg/ml, Donor A/Donor B): 65.2%
- inhibition at 0.1 µg/mL ([3]; Homo sapiens, Lymphocyte, read-out: Suppression, 0.1 μg/ml, Donor C/Donor D): 65%
- inhibition at 1 µg/mL ([3]; Homo sapiens, Lymphocyte, read-out: Suppression, 1 μg/ml, Donor A/Donor B): 42.7%
- inhibition at 1 µg/mL ([3]; Homo sapiens, Lymphocyte, read-out: Suppression, 1 μg/ml, Donor C/Donor D): 68.7%
